Measurements: patent US7790474B1, “p53 modulators” (Schering Corporation, priority 2005, dated 2010)

Test system: DLD-1 human colon adenocarcinoma cells
Test: In vivo anti-tumor study, unstaged model
Set-up: species or system Nude mice
Conditions: 10 mpk orally every 12 hours for 31 days, dosing from day 4
Protocol: Unstaged Model. In this model, the therapy was started immediately after the tumor cells had been inoculated. Nude mice (5-6 week old females) were inoculated with 5×10^6 DLD-1 human colon adenocarcinoma cells on day 1, and randomized on day 3. The dosing of these mice was started on day 4. Groups 1 to 4, having 10 mice in each group, were dosed orally every 12 hours with vehicle,
[drawing 33] 50 mpk, respectively, for 31 days. All animals were carefully monitored at least daily and each tumor was measured twice a week. The tumor growth inhibition level observed is set forth below in Table 3.

SMILES	% inhibition (tumor growth), unstaged model
CN(C)CCCNc1nc(CN2CCN(C(c3ccc(Cl)cc3)c3ccc(Cl)cc3)CC2)nc2ccccc12 [drawing 34]	48.30%

Same assay, conditions: 30 mpk orally every 12 hours for 31 days, dosing from day 4

SMILES	% inhibition (tumor growth), unstaged model
CN(C)CCCNc1nc(CN2CCN(C(c3ccc(Cl)cc3)c3ccc(Cl)cc3)CC2)nc2ccccc12 [drawing 34]	43.23%

Same assay, conditions: 50 mpk orally every 12 hours for 31 days, dosing from day 4

SMILES	% inhibition (tumor growth), unstaged model
CN(C)CCCNc1nc(CN2CCN(C(c3ccc(Cl)cc3)c3ccc(Cl)cc3)CC2)nc2ccccc12 [drawing 34]	78.96%

Test system: GST-p53 DNA binding domain (aa 92-aa 312)
Test: Scintillation Proximity Assay (displacement of 3H-labeled p53 binder)
Conditions: percentage of 3H-labeled ligand remaining bound, number in brackets = average of n
Protocol: [drawing 38] (^3H at C bearing the chlorophenyl groups and the piperazinyl group), a radiolabeled small molecule which binds to p53, and the GST-p53 DNA binding domain (aa 92-aa 312), a quantitative screening assay was used to determine if various molecules comprise p53 binding activity. The assay is based on Scintillation Proximity Assay (SPA) technology. The complex of GST-p53,
[drawing 39] and Glutathione-SPA beads (Amersham Biosciences) were incubated with mixing for 1 hour at room temperature in the presence of the compounds to be screened. The signal was read on a Microbeta.
The numerical values expressed refer to the percentage of labeled
[drawing 40] remaining bound to the mutant p53 protein after exposure to the indicated compound.

SPA ASSAY % Residual T @ 2 ug/mL of drug (Average of)	SMILES
47.7 (3) %	CC(=O)N1CCC(N(C)Cc2nc(NCCCN(C)C)c3ccccc3n2)CC1 [Formula 101]
53.7%	CN(C)CCCNc1nc(CN(C)Cc2ccccc2Sc2ccc(Cl)cc2)nc2ccccc12 [Formula 94]
49.5 (3) %	CN(C)CCCNc1nc(CN(C)Cc2cc(Cl)ccc2Cl)nc2ccccc12 [Formula 87]
66.5%	CN(C)CCCNc1nc(CN(C)C2CCC2)nc2ccccc12 [Formula 95]
61.1%	CN(C)CCCNc1nc(CN(C)Cc2ccc(C#Cc3ccccc3)cc2)nc2ccccc12 [Formula 92]
72.5%	CC(C)COC(=O)[C@H](CCCN(C)C)Nc1nc(CN2CCN(C(c3ccc(Cl)cc3)c3ccc(Cl)cc3)CC2)nc2ccccc12 [Formula 117]
54.0%	CN(C)CCCNc1nc(CN(C)Cc2ccc(Oc3ccccc3)cc2)nc2ccccc12 [Formula 91]

The remaining lines, values behind:

SMILES	SPA ASSAY % Residual T @ 2 ug/mL of drug (Average of)
CN(C)CCCNc1nc(CN(C)Cc2cccc3ccccc23)nc2ccccc12 [Formula 82]	52.9%
CN(C)CCCNc1nc(CN(C)Cc2cccc(Cl)c2Cl)nc2ccccc12 [Formula 86]	61.1%
CN(C)CCCNc1nc(CN(C)Cc2ccccc2)nc2ccccc12 [Formula 35]	22.2%
CCOC(=O)C1CC1CN(C)Cc1nc(NCCCN(C)C)c2ccccc2n1 (centres unmarked) [Formula 76]	57.8%
COc1ccc(NC(=O)N2CCN(Cc3nc(NCCCN(C)C)c4ccccc4n3)CC2)cc1 [Formula 16]	38.0%
CCC(C)(C)C1CCC(N2CCN(Cc3nc(NCCCN(C)C)c4ccccc4n3)CC2)C1 (centres unmarked) [Formula 38]	55.7%
CN(C)CCCNc1nc(CN(C)C/C=C/c2ccccc2)nc2ccccc12 [Formula 71]	68.4%
CN(C)CCCNc1nc(CN2CCN(C(c3ccccc3)c3ccc(OC(F)(F)F)cc3)CC2)nc2ccccc12 (centres unmarked) [Formula 9]	27.9%
Clc1ccc(C(c2ccc(Cl)cc2)N2CCN(Cc3nc(N4CCN(c5ncccn5)CC4)c4ccccc4n3)CC2)cc1 [Formula 47]	85.0%
CN(C)CCCNc1nc(CN(C)Cc2ccc(Cl)cc2)nc2ccccc12 [Formula 74]	55.1%
CN(C)CCCNc1nc(CN(C)Cc2cc3ccccc3o2)nc2ccccc12 [Formula 78]	45.9 (3) %
CN(C)[C@@H]1CCN(c2nc(CN3CCN(C(c4ccc(Cl)cc4)c4ccc(Cl)cc4)CC3)nc3ccccc23)C1 [Formula 50]	53.0%
CC(C)CCN(C)Cc1nc(NCCCN(C)C)c2ccccc2n1 [Formula 61]	31.6 (3) %

Test system: DLD-1 human colon adenocarcinoma cells
Test: In vivo anti-tumor study, staged model
Set-up: species or system Nude mice
Conditions: 10 mpk orally every 12 hours for 26 days, dosing from day 10
Protocol: Staged Model. In this model the initiation of therapy was delayed until the tumors had reached a certain volume. Nude mice (5-6 week old females) were inoculated with 5×10^6 DLD-1 human colon adenocarcinoma cells on day 1, and then randomized on day 10. The dosing of these mice was started on day 10. Groups 1 to 5, having 10 mice in each group, were dosed orally every 12 hours with no treatment, vehicle,
[drawing 36] 50 mpk, respectively, for 26 days. All animals were carefully monitored at least daily and each tumor was measured twice a week. The tumor growth inhibition level observed is set forth below in Table 4.

SMILES	% inhibition (tumor growth), staged model
CN(C)CCCNc1nc(CN2CCN(C(c3ccc(Cl)cc3)c3ccc(Cl)cc3)CC2)nc2ccccc12 [drawing 37]	10.15%

Same assay, conditions: 30 mpk orally every 12 hours for 26 days, dosing from day 10

SMILES	% inhibition (tumor growth), staged model
CN(C)CCCNc1nc(CN2CCN(C(c3ccc(Cl)cc3)c3ccc(Cl)cc3)CC2)nc2ccccc12 [drawing 37]	14.73%

Same assay, conditions: 50 mpk orally every 12 hours for 26 days, dosing from day 10

SMILES	% inhibition (tumor growth), staged model
CN(C)CCCNc1nc(CN2CCN(C(c3ccc(Cl)cc3)c3ccc(Cl)cc3)CC2)nc2ccccc12 [drawing 37]	44.31%
